A short description of data set [1]: The drug is tested on Z-030 corresponding to mouse gut metagenome with ENA study accession number: PRJEB37062 and ENA sample accession number: ERS12561829 for biotransformation under anaerobic condition. The drug concentrations were measured over 9 timepoints collected between 0 and 24 hours of incubation by liquid-chromatography-coupled mass spectrometry (LC–MS). To be noted: 2 µM.

Data set [2] can be described thus: The drug is tested on WLS-010 corresponding to human gut metagenome with ENA study accession number: PRJEB37062 and ENA sample accession number: ERS12561743 for biotransformation under anaerobic condition. The drug concentrations were measured over 9 timepoints collected between 0 and 24 hours of incubation by liquid-chromatography-coupled mass spectrometry (LC–MS). To be noted: 2 µM.

Data set [3] in a line: The drug is tested on Z-014 corresponding to rat gut metagenome with ENA study accession number: PRJEB37062 and ENA sample accession number: ERS12561814 for biotransformation under anaerobic condition. The drug concentrations were measured over 9 timepoints collected between 0 and 24 hours of incubation by liquid-chromatography-coupled mass spectrometry (LC–MS). To be noted: 2 µM.

Data set [4] in a line: The drug is tested on WLS-098 corresponding to human gut metagenome with ENA study accession number: PRJEB37062 and ENA sample accession number: ERS12561754 for biotransformation under anaerobic condition. The drug concentrations were measured over 9 timepoints collected between 0 and 24 hours of incubation by liquid-chromatography-coupled mass spectrometry (LC–MS). To be noted: 2 µM.

The conditions of data set [5]: human gut metagenome, 24 h, 2 µM.
For data set [6] the following is noted: human gut metagenome, 24 h, 2 µM. The source holds these as a separate data set.
The conditions of data set [7]: human gut metagenome, 24 h, 2 µM. This is another data set of the same source.
The conditions of data set [8]: human gut metagenome, 24 h, 2 µM. This is another data set of the same source.
A short description of data set [9]: The drug is tested on Z-011 corresponding to mouse gut metagenome with ENA study accession number: PRJEB37062 and ENA sample accession number: ERS12561811 for biotransformation under anaerobic condition. The drug concentrations were measured over 9 timepoints collected between 0 and 24 hours of incubation by liquid-chromatography-coupled mass spectrometry (LC–MS). To be noted: 2 µM.

Data set [10] in a line: The drug is tested on WLS-006 corresponding to human gut metagenome with ENA study accession number: PRJEB37062 and ENA sample accession number: ERS12561741 for biotransformation under anaerobic condition. The drug concentrations were measured over 9 timepoints collected between 0 and 24 hours of incubation by liquid-chromatography-coupled mass spectrometry (LC–MS). To be noted: 2 µM.

A short description of data set [11]: The drug is tested on Z-024 corresponding to pig gut metagenome with ENA study accession number: PRJEB37062 and ENA sample accession number: ERS12561823 for biotransformation under anaerobic condition. The drug concentrations were measured over 9 timepoints collected between 0 and 24 hours of incubation by liquid-chromatography-coupled mass spectrometry (LC–MS). To be noted: 2 µM.

Data set [12] in a line: The drug is tested on WLS-077 corresponding to human gut metagenome with ENA study accession number: PRJEB37062 and ENA sample accession number: ERS12561750 for biotransformation under anaerobic condition. The drug concentrations were measured over 9 timepoints collected between 0 and 24 hours of incubation by liquid-chromatography-coupled mass spectrometry (LC–MS). To be noted: 2 µM.

For data set [13] the following is noted: human gut metagenome, 24 h, 2 µM. This is another data set of the same source.
For data set [14] the following is noted: human gut metagenome, 24 h, 2 µM. This is another data set of the same source.
Data set [15] in a line: The drug is tested on WLS-069 corresponding to human gut metagenome with ENA study accession number: PRJEB37062 and ENA sample accession number: ERS12561748 for biotransformation under anaerobic condition. The drug concentrations were measured over 9 timepoints collected between 0 and 24 hours of incubation by liquid-chromatography-coupled mass spectrometry (LC–MS). To be noted: 2 µM.

Data set [16] can be described thus: The drug is tested on Z-026 corresponding to metagenome with ENA study accession number: PRJEB37062 and ENA sample accession number: ERS12561825 for biotransformation under anaerobic condition. The drug concentrations were measured over 9 timepoints collected between 0 and 24 hours of incubation by liquid-chromatography-coupled mass spectrometry (LC–MS). To be noted: 2 µM.

Data set [17] in a line: The drug is tested on Z-016 corresponding to mouse gut metagenome with ENA study accession number: PRJEB37062 and ENA sample accession number: ERS12561815 for biotransformation under anaerobic condition. The drug concentrations were measured over 9 timepoints collected between 0 and 24 hours of incubation by liquid-chromatography-coupled mass spectrometry (LC–MS). To be noted: 2 µM.

A short description of data set [18]: The drug is tested on Z-012 corresponding to metagenome with ENA study accession number: PRJEB37062 and ENA sample accession number: ERS12561812 for biotransformation under anaerobic condition. The drug concentrations were measured over 9 timepoints collected between 0 and 24 hours of incubation by liquid-chromatography-coupled mass spectrometry (LC–MS). To be noted: 2 µM.

For data set [19] the following is noted: human gut metagenome, 24 h, 2 µM. The source holds these as a separate data set.
The conditions of data set [20]: human gut metagenome, 24 h, 2 µM. The source holds these as a separate data set.

The structures appear in SMILES notation.
Note: call rule not given here.

Turning to `C#C[C@]1(OC(C)=O)CC[C@H]2[C@@H]3CCC4=C/C(=N/O)CC[C@@H]4[C@H]3CC[C@@]21CC` [NORGESTIMATE], the “Bacterial Biotransformation” value in [1] is reported as “Compound metabolized”; in [2], “Compound metabolized”; in data set [3] it was “Compound NOT metabolized”; in data set [4] it was “Compound metabolized”; in [5] it was “Compound metabolized”; in data set [6], “Compound NOT metabolized”. Further, the “Bacterial Biotransformation” value in data set [7] was “Compound metabolized”; in data set [8], “Compound NOT metabolized”; in [9] it was “Compound NOT metabolized”; in [10], “Compound metabolized”; in data set [11] it was “Compound NOT metabolized”; in [12], “Compound metabolized”. The “Bacterial Biotransformation” value in [13] is listed as “Compound metabolized”; in data set [14], “Compound metabolized”; in data set [15] it was “Compound metabolized”; in data set [16] it was “Compound NOT metabolized”; in [17], “Compound NOT metabolized”; in data set [18], “Compound NOT metabolized”. In addition, the “Bacterial Biotransformation” value in [19] was “Compound metabolized”; in data set [20], “Compound NOT metabolized”.
Turning to `CCS(=O)(=O)CCn1c([N+](=O)[O-])cnc1C` [TINIDAZOLE], the “Bacterial Biotransformation” value in data set [1], in [2], in data set [3], in data set [4], in [5] and in data set [6] was “Compound metabolized” in each case. In addition, the “Bacterial Biotransformation” value in [7], in data set [8], in data set [9], in data set [10], in data set [11] and in [12] was “Compound metabolized” each time. Further, the “Bacterial Biotransformation” value in data set [13], in data set [14], in data set [15], in data set [16], in data set [17] and in data set [18] was “Compound metabolized” in each case. The “Bacterial Biotransformation” value in data set [19] and in data set [20] was “Compound metabolized” each time.
For the compound `N=C(N)NC(=O)Cc1c(Cl)cccc1Cl` [GUANFACINE], the “Bacterial Biotransformation” value in data set [1], in [2], in data set [3], in [4], in [5] and in [6] was “Compound NOT metabolized” throughout. In addition, the “Bacterial Biotransformation” value in data set [7], in data set [8], in [9], in data set [10], in [11] and in [12] was “Compound NOT metabolized” each time. The “Bacterial Biotransformation” value in data set [13], in [14], in data set [15], in data set [16], in [17] and in data set [18] was “Compound NOT metabolized” each time. Besides, the “Bacterial Biotransformation” value in data set [19] and in data set [20] was “Compound NOT metabolized” each time.
For the compound `CC(C)c1c(CN(C)C(C)Cc2ccccc2)n(C)n(-c2ccccc2)c1=O` (stereo not given) [FAMPROFAZONE], the “Bacterial Biotransformation” value in data set [1] was “Compound NOT metabolized”; in [2] it was “Compound metabolized”; in data set [3], “Compound metabolized”; in data set [4] it was “Compound metabolized”; in data set [5], “Compound metabolized”; in [6], “Compound metabolized”. Besides, the “Bacterial Biotransformation” value in data set [7], in data set [8], in data set [9], in data set [10], in [11] and in data set [12] was “Compound metabolized” in each case. Also, the “Bacterial Biotransformation” value is “Compound metabolized” in data set [13]; “Compound metabolized” in [14]; “Compound metabolized” in [15]; “Compound NOT metabolized” in data set [16]; “Compound metabolized” in data set [17]; “Compound metabolized” in [18]. The “Bacterial Biotransformation” value in [19] and in data set [20] was “Compound metabolized” each time.
On to `COc1ccc(/C=C/C(=O)Nc2ccccc2C(=O)O)cc1OC`, for which the “Bacterial Biotransformation” value in data set [1] is on record as “Compound NOT metabolized”; in [2], “Compound metabolized”; in data set [3], “Compound metabolized”; in data set [4], “Compound metabolized”; in data set [5], “Compound NOT metabolized”; in data set [6] it was “Compound metabolized”. Further, the “Bacterial Biotransformation” value is reported as “Compound NOT metabolized” in data set [7]; “Compound NOT metabolized” in data set [8]; “Compound NOT metabolized” in [9]; “Compound NOT metabolized” in data set [10]; “Compound metabolized” in data set [11]; “Compound metabolized” in [12]. Also, the “Bacterial Biotransformation” value in [13] is “Compound NOT metabolized”; in data set [14] it was “Compound NOT metabolized”; in data set [15], “Compound metabolized”; in data set [16], “Compound metabolized”; in [17] it was “Compound metabolized”; in [18], “Compound NOT metabolized”. Also, the “Bacterial Biotransformation” value in [19] is listed as “Compound metabolized”; in data set [20], “Compound NOT metabolized”.

The record behind these values is ChEMBL document CHEMBL5724914, “Linking interpersonal differences in gut microbiota composition and drug biotransformation activity” (2024).
